The subject of assay [1] is sonic hedgehog pathway. The experiment in a line: Hedgehog reporter assay (gli-luciferase) in TM3 cells. The class given is cell-based, mouse. The conditions noted are these: TM3 mouse Leydig cells, gli-luciferase reporter; read-out: TM3 Avg. EC50. The text has this: (§1) Mouse (TM3: mouse Leydig cells; S12: mouse embryonic mesenchymal cells) and human (Daoy: human medulloblastoma cell; HepM: human embryonic palatal mesenchymal cell) cell lines are used to screen small molecules for their ability to modulate the activity of the sonic hedgehog pathway (Table 1, Table 2, and Table 3). Stable hedgehog pathway reporter cell lines are established by specific antibiotic selection following transfection of a reporter plasmid containing a luciferase gene located directly downstream from the gli promoter. Consequently, any observable changes in cellular luciferase activity may be attributed to changes in sonic hedgehog pathway activity in mouse and human cells, respectively, since gli is the major by-product of this pathway. To calculate activity, we generate an eleven point dose curve for each compound using 1:3 dilutions in 96 well assay plates. Each plate tested also contains low and high control to establish maximal pathway activation so to establish/compare a percentage activation of each tested compound (AMAX) on respective plates.
(§2) Stable hedgehog pathway reporter cell lines are established following specific antibiotic selection following transfection of a reporter plasmid
(§3) In short, typically cells are plated in MicroTiter-plates at 10,000-20,000 cells per well, in growth media (containing 10%-20% FBS). After 48-72 hrs (HGL and DGL respectively) the media in the assay plates is switched to low-serum containing media (0.5% FBS). At that time compounds are added (at 1-5 μM) to the assay plates, in the presence or absence of hedgehog protein (octyl-modified version; 1-5 ng/ml). After another 24 hrs of incubation, the media from the assay plates is discarded and replaced with luciferase assay-mix. Subsequently, plates are incubated at RT for ˜15-30 mins and then read in a luminometer. [note: addition of the Hedgehog protein, although not critical, will sensitize the assay allowing the identification of weak actives].

In assay [2] the test system is sonic hedgehog pathway. The experiment in a line: Human hedgehog reporter assay HEPM-GliLuc (HGL). Type of assay: cell-based. The conditions noted are these: HepM human embryonic palatal mesenchymal cells, gli-luciferase reporter; read-out: HEPM Avg. EC50.
Text: as §1, §2, §3
Background: In a reporter assay the amount or activity of a reporter protein is the signal.

Assay [3] relates to sonic hedgehog pathway. The experiment in a line: Human hedgehog reporter assay Daoy-GliLuc (DGL). The class given is cell-based. The conditions noted are these: Daoy human medulloblastoma cells, gli-luciferase reporter; read-out: Daoy Avg. EC50.
Text: as §1, §2, §3

pEC50: −log10 of the molar value. Counter-ions that a name gives are not always drawn.

As a reminder, the pEC50 is the EC50 on a negative log10 scale, so that one unit is a factor of ten.

Turning to `CNC1CCC(N(Cc2cc(-c3ccnc(C)c3)ccc2OC)C(=O)c2sc3ccccc3c2Cl)CC1` (centres unmarked) [331 (R11), 3-Chloro-benzo[b]thiophene-2-carboxylic acid[2-methoxy-5-(2-methyl-pyridin-4-yl)-benzyl]-(4-methylamino-cyclohexyl)-amide dihydrochloride], the pEC50 in the assay with sonic hedgehog pathway [1] and in the assay with sonic hedgehog pathway [2] was more than 7.30 throughout.
On to `CNC1CCC(N(Cc2cc(-c3ccc(C(F)(F)F)cc3)ccc2OC)C(=O)c2sc3ccccc3c2Cl)CC1` (centres unmarked) [Compound 306, 3-Chloro-benzo[b]thiophene-2-carboxylic acid (4-methoxy-4′-trifluoromethyl-biphenyl-3-ylmethyl)-(4-methylamino-cyclohexyl)-amide trifluoroacetate], for which the pEC50 in the assay on sonic hedgehog pathway [1] was 6.60 to 7.30; in the assay with sonic hedgehog pathway [3], more than 7.30.
In the case of `CNC1CCC(N(Cc2cc(-c3ccc(OC(F)(F)F)cc3)ccc2OC)C(=O)c2sc3ccccc3c2Cl)CC1` (centres unmarked) [Compound 307, 3-Chloro-benzo[b]thiophene-2-carboxylic acid (4-methoxy-4′-trifluoromethoxy-biphenyl-3-ylmethyl)-(4-methylamino-cyclohexyl)-amide hydrochloride], the pEC50 in the assay on sonic hedgehog pathway [1] and with sonic hedgehog pathway [3] was more than 7.30 in each case.
`CNC1CCC(N(Cc2cc(-c3ccc(Cl)cc3)ccc2OC)C(=O)c2sc3ccccc3c2Cl)CC1` (centres unmarked) [Compound 308, 3-Chloro-benzo[b]thiophene-2-carboxylic acid (4′-chloro-4-methoxy-biphenyl-3-ylmethyl)-(4-methylamino-cyclohexyl)-amide hydrochloride]: the pEC50 in the assay on sonic hedgehog pathway [1] and in the assay with sonic hedgehog pathway [3] was more than 7.30 in each case.
With `CCOc1ccc(-c2ccc(C(F)(F)F)cc2)cc1CN(C(=O)c1sc2ccccc2c1Cl)C1CCC(NC)CC1` (centres unmarked) [Compound 309, 3-Chloro-benzo[b]thiophene-2-carboxylic acid (4-ethoxy-4′-trifluoromethyl-biphenyl-3-ylmethyl)-(4-methylamino-cyclohexyl)-amide hydrochloride], the pEC50 in the assay with sonic hedgehog pathway [1] is 6.60 to 7.30; in the assay on sonic hedgehog pathway [3], more than 7.30.
Regarding `CCOc1ccc(-c2ccc(OC)cc2)cc1CN(C(=O)c1sc2ccccc2c1Cl)C1CCC(NC)CC1` (centres unmarked) [Compound 312, 3-Chloro-benzo[b]thiophene-2-carboxylic acid (4-ethoxy-4′-methoxy-biphenyl-3-ylmethyl)-(4-methylamino-cyclohexyl)-amide hydrochloride], the pEC50 with sonic hedgehog pathway [3] is 6.60 to 7.30.
As to `CCOc1ccc(-c2ccccc2)cc1CN(C(=O)c1sc2ccccc2c1Cl)C1CCC(NC)CC1` (centres unmarked) [Compound 313, 3-Chloro-benzo[b]thiophene-2-carboxylic acid (4-ethoxy-biphenyl-3-ylmethyl)-(4-methylamino-cyclohexyl)-amide hydrochloride], the values for the pEC50 with sonic hedgehog pathway [1] and in the assay on sonic hedgehog pathway [3] were 6.60 to 7.30 and more than 7.30, respectively.
On to `CN[C@H]1CC[C@H](N(Cc2cc(-c3ccc(F)cc3)ccc2OC)C(=O)c2sc3ccccc3c2Cl)CC1` [Compound 314, 3-Chloro-benzo[b]thiophene-2-carboxylic acid (4′-fluoro-4-methoxy-biphenyl-3-ylmethyl)-(4-methylamino-cyclohexyl)-amide hydrochloride], for which the pEC50 in the assay on sonic hedgehog pathway [1] and with sonic hedgehog pathway [3] was more than 7.30 in each case.
With `CNc1ncc(-c2ccc(OC)c(CN(C(=O)c3sc4ccccc4c3Cl)[C@H]3CC[C@H](NC)CC3)c2)cn1` [Compound 322, 3-Chloro-benzo[b]thiophene-2-carboxylic acid[2-methoxy-5-(2-methylamino-pyrimidin-5-yl)-benzyl]-(4-methylamino-cyclohexyl)-amide dihydrochloride], the pEC50 was 6.00 to 6.60 with sonic hedgehog pathway [1] and 6.60 to 7.30 in the assay with sonic hedgehog pathway [3].
Turning to `CN[C@H]1CC[C@H](N(Cc2cc(-c3cnc(N)nc3)ccc2OC)C(=O)c2sc3ccccc3c2Cl)CC1` [Compound 323, 3-Chloro-benzo[b]thiophene-2-carboxylic acid[5-(2-amino-pyrimidin-5-yl)-2-methoxy-benzyl]-(4-methylamino-cyclohexyl)-amide dihydrochloride], the pEC50 in the assay on sonic hedgehog pathway [1] is 6.60 to 7.30; with sonic hedgehog pathway [3] it was more than 7.30.
On to `CNC1CCC(N(Cc2cc(-c3cccc(C#N)c3)ccc2OC)C(=O)c2sc3c(F)ccc(F)c3c2Cl)CC1` (centres unmarked) [Compound 337, 3-Chloro-4,7-difluoro-benzo[b]thiophene-2-carboxylic acid (3′-cyano-4-methoxy-biphenyl-3-ylmethyl)-(4-methylamino-cyclohexyl)-amide hydrochloride], for which the pEC50 in the assay on sonic hedgehog pathway [1] and in the assay with sonic hedgehog pathway [2] was more than 7.30 throughout.
As for `CNC1CCC(N(Cc2cc(-c3ccncc3)ccc2OC)C(=O)c2sc3ccccc3c2Cl)CC1` (centres unmarked) [Compound 339 (R12), 3-Chloro-benzo[b]thiophene-2-carboxylic acid (2-methoxy-5-pyridin-4-yl-benzyl)-(4-methylamino-cyclohexyl)-amide dihydrochloride], the negative-log EC50 (pEC50) in the assay with sonic hedgehog pathway [1] and with sonic hedgehog pathway [2] was more than 7.30 throughout.
On to `CCOc1ccc(-c2ccc(C(=O)C(F)(F)F)cc2)cc1CN(C(=O)c1sc2c(F)ccc(C)c2c1Cl)[C@H]1CC[C@@H](NC)CC1` [Compound 341, 3-Chloro-4,7-difluoro-benzo[b]thiophene-2-carboxylic acid[4-ethoxy-4′-(2,2,2-trifluoro-acetyl)-biphenyl-3-ylmethyl]-(4-methylamino-cyclohexyl)-amide trifluoroacetate], for which the pEC50 in the assay with sonic hedgehog pathway [1] is more than 7.30; with sonic hedgehog pathway [2] it was 6.60 to 7.30.
Take `CNC1CCC(N(Cc2cc(-c3ccc(C#N)cc3)ccc2OC)C(=O)c2sc3c(F)ccc(F)c3c2Cl)CC1` (centres unmarked) [Compound 351, 3-Chloro-4,7-difluoro-benzo[b]thiophene-2-carboxylic acid (4′-cyano-4-methoxy-biphenyl-3-ylmethyl)-(4-methylamino-cyclohexyl)-amide hydrochloride]: the pEC50 with sonic hedgehog pathway [1] and in the assay on sonic hedgehog pathway [2] was more than 7.30 throughout.
On to `CN[C@H]1CC[C@H](N(Cc2cc(-c3cccc(C(C)=O)c3)ccc2OC)C(=O)c2sc3cccc(F)c3c2Cl)CC1` [Compound 363, 3-Chloro-4-fluoro-benzo[b]thiophene-2-carboxylic acid (3′-acetyl-4-methoxy-biphenyl-3-ylmethyl)-(4-methylamino-cyclohexyl)-amide hydrochloride], for which the pEC50 in the assay on sonic hedgehog pathway [1] and in the assay with sonic hedgehog pathway [3] was more than 7.30 in each case.
Take `CNC1CCC(N(Cc2cc(-c3cc(C)nc(C)c3)ccc2OC)C(=O)c2sc3ccccc3c2Cl)CC1` (centres unmarked) [Compound R1, 3-Chloro-benzo[b]thiophene-2-carboxylic acid[5-(2,6-dimethyl-pyridin-4-yl)-2-methoxy-benzyl]-(4-methylamino-cyclohexyl)-amide dihydrochloride]: the figures for the pEC50 in the assay on sonic hedgehog pathway [1] and with sonic hedgehog pathway [2] were more than 7.30 and 6.60 to 7.30, respectively.
With `CCOc1ccc(-c2ccc(C#N)cc2)cc1CN(C(=O)c1sc2ccccc2c1Cl)C1CCC(NC)CC1` (centres unmarked) [Compound R2, 3-Chloro-benzo[b]thiophene-2-carboxylic acid (4′-cyano-4-ethoxy-biphenyl-3-ylmethyl)-(4-methylamino-cyclohexyl)-amide hydrochloride], the pEC50 in the assay on sonic hedgehog pathway [1] and in the assay on sonic hedgehog pathway [2] was 6.60 to 7.30 throughout.
For `CCOc1ccc(-c2ccc(C)nc2)cc1CN(C(=O)c1sc2ccccc2c1Cl)C1CCC(NC)CC1` (centres unmarked) [Compound R4, 3-Chloro-benzo[b]thiophene-2-carboxylic acid[2-ethoxy-5-(6-methyl-pyridin-3-yl)-benzyl]-(4-methylamino-cyclohexyl)-amide dihydrochloride], the pEC50 with sonic hedgehog pathway [1] and with sonic hedgehog pathway [2] was 6.60 to 7.30 throughout.

Source of the values: patent publication US20120245184A1 (Aderans Research Institute, Inc., priority 2006, published 2012).
